According to PubChem BioAssay (NCI):
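Cultured in 96-well plates, cells were exposed to test compound for 48 hours across five concentrations. Abbreviation: GI50, concentration required for 50% inhibition of growth. TGI: concentration producing complete growth inhibition.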

Columns and labels:
Assay in all cases: growth of human tumour cells (NCI), 48 h
[1] = system: U251 CNS
[2] = system: MALME-3M melanoma
[3] = system: HCC-2998 colon
[4] = system: K-562 leukemia
[5] = system: 786-0 renal
[6] = system: HT29 colon
[7] = system: OVCAR-3 ovarian
[8] = system: LOX IMVI melanoma
[9] = system: T-47D breast
[10] = system: IGROV1 ovarian
[11] = system: HOP-62 NSCLC
[12] = system: BT-549 breast
[13] = system: COLO 205 colon
[14] = system: SF-268 CNS
[15] = system: MOLT-4 leukemia
[16] = system: NCI-H522 lung
[17] = system: ACHN renal
[18] = system: M14 melanoma
[19] = system: A498 renal
[20] = system: NCI-H460 lung
[21] = system: NCI-H23 lung
[22] = system: HL-60(TB) leukemia
[23] = system: SF-295 CNS
[24] = system: UACC-257 melanoma
[25] = system: SNB-19 CNS
[26] = system: CAKI-1 renal
[27] = system: SNB-75 CNS
[28] = system: CCRF-CEM leukemia
[29] = system: SK-MEL-5 melanoma
[30] = system: HOP-92 NSCLC
[31] = system: TK-10 renal
[32] = system: MDA-MB-468 breast
[33] = system: SK-MEL-28 melanoma
[34] = system: MCF7 breast
[35] = system: PC-3 prostate
[36] = system: A549 NSCLC
[37] = system: HCT-116 colon
[38] = system: SF-539 CNS
[39] = system: SK-MEL-2 melanoma
[40] = system: RXF 393 renal
[41] = system: RPMI-8226 leukemia
[42] = system: SN12C renal
[43] = system: HS 578T breast
[44] = system: EKVX NSCLC
[45] = system: OVCAR-8 ovarian
[46] = system: NCI/ADR-RES ovarian
[47] = system: UACC-62 melanoma
[48] = system: OVCAR-5 ovarian
[49] = system: SK-OV-3 ovarian
[50] = system: KM12 colon
[51] = system: HCT-15 colon
[52] = system: DU-145 prostate
[53] = system: SW-620 colon
[54] = system: MDA-MB-435
[55] = system: OVCAR-4 ovarian
[56] = system: NCI-H226 lung

Compound: COC(=O)C(Cc1ccc(O)c(O)c1)NC(=O)C(CSC/C=C(\C)CCCC(C)CCCC(C)CCCC(C)C)NC(C)=O (configuration not stated)
- GI50 [1]: 2.84 µM
- TGI [1]: 11.2 µM
- GI50 [2]: 49.1 µM
- TGI [2]: > 100 µM
- GI50 [3]: 18 µM
- TGI [3]: > 100 µM
- GI50 [4]: 8.06 µM
- TGI [4]: > 100 µM
- GI50 [5]: 1.29 µM
- TGI [5]: 2.76 µM
- GI50 [6]: 9.19 µM
- TGI [6]: > 100 µM
- GI50 [7]: 5.79 µM
- TGI [7]: > 100 µM
- GI50 [8]: 10.5 µM
- TGI [8]: > 100 µM
- GI50 [9]: 7.78 µM
- TGI [9]: 45.3 µM
- GI50 [10]: 10.7 µM
- TGI [10]: > 100 µM
- GI50 [11]: 13.6 µM
- TGI [11]: 44.4 µM
- GI50 [12]: 1.36 µM
- TGI [12]: 3 µM
- GI50 [13]: 15.5 µM
- TGI [13]: > 100 µM
- GI50 [14]: 26.7 µM
- TGI [14]: > 100 µM
- GI50 [15]: 3.34 µM
- TGI [15]: > 100 µM
- GI50 [16]: 1.82 µM
- TGI [16]: 3.6 µM
- GI50 [17]: 16.5 µM
- TGI [17]: 42.7 µM
- GI50 [18]: 2.78 µM
- TGI [18]: 12.5 µM
- GI50 [19]: 30.3 µM
- TGI [19]: > 100 µM
- GI50 [20]: 4.27 µM
- TGI [20]: > 100 µM
- GI50 [21]: 20 µM
- TGI [21]: 64.2 µM
- GI50 [22]: 6.67 µM
- TGI [22]: 41.5 µM
- GI50 [23]: 18.3 µM
- TGI [23]: 43.8 µM
- GI50 [24]: 69.2 µM
- TGI [24]: > 100 µM
- GI50 [25]: 3.81 µM
- TGI [25]: 48.4 µM
- GI50 [26]: 31 µM
- TGI [26]: > 100 µM
- GI50 [27]: 39.3 µM
- TGI [27]: > 100 µM
- GI50 [28]: 3.84 µM
- TGI [28]: > 100 µM
- GI50 [29]: 28 µM
- TGI [29]: > 100 µM
- GI50 [30]: 11.9 µM
- TGI [30]: 30.1 µM
- GI50 [31]: 22.3 µM
- TGI [31]: 93.8 µM
- GI50 [32]: 16.9 µM
- TGI [32]: > 100 µM
- GI50 [33]: 49.5 µM
- TGI [33]: > 100 µM
- GI50 [34]: 13.5 µM
- TGI [34]: > 100 µM
- GI50 [35]: 3 µM
- TGI [35]: 14.2 µM
- GI50 [36]: 11.2 µM
- TGI [36]: > 100 µM
- GI50 [37]: 1.33 µM
- TGI [37]: 2.81 µM
- GI50 [38]: 9.48 µM
- TGI [38]: 26.1 µM
- GI50 [39]: 25.1 µM
- TGI [39]: 90 µM
- GI50 [40]: 16.1 µM
- TGI [40]: 44.5 µM
- GI50 [41]: 4.06 µM
- TGI [41]: > 100 µM
- GI50 [42]: 30.9 µM
- TGI [42]: > 100 µM
- GI50 [43]: 27.7 µM
- TGI [43]: > 100 µM
- GI50 [44]: 30.3 µM
- TGI [44]: > 100 µM
- GI50 [45]: 7.95 µM
- TGI [45]: 32.7 µM
- GI50 [46]: 33.3 µM
- TGI [46]: > 100 µM
- GI50 [47]: 17.1 µM
- TGI [47]: 74.8 µM
- GI50 [48]: 29.5 µM
- TGI [48]: > 100 µM
- GI50 [49]: 17.5 µM
- TGI [49]: 43.2 µM
- GI50 [50]: 9.05 µM
- TGI [50]: > 100 µM
- GI50 [51]: 4.45 µM
- TGI [51]: > 100 µM
- GI50 [52]: > 100 µM
- TGI [52]: > 100 µM
- GI50 [53]: 11.4 µM
- TGI [53]: > 100 µM
- GI50 [54]: 41.5 µM
- TGI [54]: > 100 µM
- GI50 [55]: 25.6 µM
- TGI [55]: > 100 µM
- GI50 [56]: 16.2 µM
- TGI [56]: > 100 µM
